Experimental data reported in patent US12539281B2 (priority 2021, dated 2026).
Where two headings read alike, the source gives them in different places.

Legend:
[1] = system: blood-brain barrier (BBB); assay: IA ethyl alcohol, NEO100 or mannitol mediated BBB disruption, extravasated EB dye in perfused mouse brain (Experiments 1-3); type: in vivo, mice; conditions: for EB dye / EB dye penetration level / Patchy, or punctate pattern of EB dye: perfused mouse brain
Description: The method of IA and IC injection is similar to the IV push in the clinic, which comprises essentially the steps of: • pushing the injection composition at a particular infusion flow rate immediately after the placement of the IA catheter into the internal carotid artery (ICA) or the insertion of the injection needle into the left ventricle via the ultrasound-guided intracardiac (IC) puncture at room temperature.
When performing the IA and IC injections, the infusion flow rate is about 5-7 μl/second (0.3-0.45 ml/min), the infusion volume is about […] of the body weight (at 1 μl/g, volume/weight ratio), and USP purified water or sodium chloride is used to reconstitute varied EA solutions at room temperature.
Intracardiac injection of NEO100 or EA can be carried out through the procedure of ultrasound-guided intracardiac (IC) injection. […] The mouse is anesthetized in an induction chamber using 2-3% isoflurane in 100% oxygen at a rate of 0.2-0.5 L/min. Fur over the thorax area is removed and the animal is placed in a stereotactic frame in supine position, securing the upper and lower limbs to avoid body movement. The ultrasound transducer is placed above the chest of the animal, and the injection syringe is anchored to a platform to avoid erratic needle movements. An electrocardiogram monitor is used to monitor heart function during the intracardiac injection.
EB dye is used as the non-BBB permeable substance.
Photographs of the perfused brain tissues of the experimental mice after treatment are taken.
Extravasated EB dye is used as the non-BBB permeable substance.

[2] = system: blood-brain barrier (BBB); assay: Comparison of intracardiac EA and NEO100 mediated BBB opening, EB dye (Comparative Experiment 19, Experiment 20); type: in vivo, mice
Description: Intracardiac injected various concentrations of EA (at 25%, 20%, 3%, 0.3%, and 0.1%, 0.03%, 0.01%) and NEO100 (at 25%, 20%, 3%, 0.3%, and 0.1%, 0.03%, 0.01%) are used on mice to test their effects on BBB disruption and evaluated by the observation of extravasated EB dye in the brain tissues. […] Photographs of the perfused brain tissues from the experimental mice treated with […] EA and NEO100 are taken for observation and comparison.
The same procedure as experiment 19 was performed with IA 0.3% NEO100 with 2% EB dye solution.

[3] = cited from earlier work
[4] = system: blood-brain barrier (BBB); conditions: IA NEO100, IA mannitol; stated for comparison, no test described; cited from earlier work
[5] = Comparison of the toxicity of IA NEO100 and IA EA (Experiment 21)
Description: The safety profile of IA 0.3% NEO100 vs. IA 0.3% EA are compared. […] There are 15 experimental mice in each testing group. The potential adverse effects are evaluated.

[6] = system: blood-brain barrier (BBB)
[7] = IA injection 0.3%, 15 mice per group
[8] = IA injection 0.3%, 15 mice per group, number of mice

In the case of C=C(C)[C@@H]1CC=C(CO)CC1 [NEO100, perillyl alcohol], the EB dye ([1]; IA agent at 0.1%) is reported as “Observed”, the “EB dye penetration level” value ([1]; IA agent at 0.1%) is reported as “Few Patchy” and the “Patchy, or punctate pattern of EB dye” value ([1]; IA agent at 0.1%) is reported as “Observed”. The EB dye ([1]; IA agent at 0.3%) was “Observed”, the “EB dye penetration level” value ([1]; IA agent at 0.3%) was “Widely” and the “Patchy, or punctate pattern of EB dye” value ([1]; IA agent at 0.3%) was “Observed”. For the same molecule, the EB dye ([1]; IA agent at 3%) was “Observed”, the “EB dye penetration level” value ([1]; IA agent at 3%) was “Widely” and the “Patchy, or punctate pattern of EB dye” value ([1]; IA agent at 3%) was “Observed”. For the same molecule, the EB dye ([1]; IA agent at 5%) was “Observed”, the “EB dye penetration level” value ([1]; IA agent at 5%) was “Widely” and the “Patchy, or punctate pattern of EB dye” value ([1]; IA agent at 5%) was “Observed”. For the same molecule, the “brain finding in sudden-death mouse (inferior view)” value ([2]; IA 0.3% NEO100 with 2% EB dye, mouse died right after treatment) was “bleeding and a blood clot”, the “pattern of breached BBB, coronal section” value ([2]; IA 25% NEO, mice) was “random, haphazard, sporadic, patchy, or punctate pattern” and the “dose response of BBB disruption” value ([2]; intracardiac 25%, 20%, 3%, 0.3%, 0.1%, 0.03%, 0.01%, mice) was “dose-dependent manner”. The solubility in water [3] was “water-insoluble”, the “interval window of the breached BBB” value [4] was 4 h and the Mortality [5, 7] was 53.33%. The “tested animals that experienced adverse effects” value [5, 7] was “almost all”, the “Immediate Sudden Death” value [5, 8] was 3 and the “Intermediate-lasting epilepsy post-injection leading to death” value [5, 8] was 2. For the same molecule, the “Long-lasting epilepsy post-injection leading death” value [5, 8] was 3, the “Moderate-lasting epilepsy post-injection and survival to fully recovery” value [5, 8] was 3 and the “Transient, mild, or occasional epilepsy post-injection and survival to fully recovery” value [5, 8] was 4. The overall mortality rate ([5]; repeated comparative experiments of IA EA and IA NEO100) was “around 60%”.
For OC[C@@H](O)[C@@H](O)[C@H](O)[C@H](O)CO [mannitol], the “EB dye penetration level” value ([1]; IA agent at 0.1%) was “Not”, the “EB dye penetration level” value ([1]; IA agent at 0.3%) was “Not” and the “EB dye penetration level” value ([1]; IA agent at 3%) was “Not”. For the same molecule, the “EB dye penetration level” value ([1]; IA agent at 5%) was “Not”, the brain damage ([1]; IA mannitol at 0.1%, 0.3%, 3%, and 5%, mice) was “Some brain damage is observed” and the “disrupted BBB after IC mannitol” value ([1]; IC application of varied volumes of high concentrations of mannitol, mice) was “No disrupted BBB is observed”. For the same molecule, the “EB (induced BBB disruption)” value ([6]; group A: 1800 μl 25% mannitol infused in 30 seconds) was “observed”, the “EB (induced BBB disruption)” value ([6]; group C: 300 μl 25% mannitol at regular speed in 1 minute, warmed to 37° C.) was “not observed” and the “interval window of the breached BBB” value [4] was 6 to 7 h.
